Data on nine compounds can be found in US20160215305A1, “Process of Fermenting A Lignocellulosic Biomass” (priority 2015, published 2016).

Assay [1] concerns S. cerevisiae. As to the kind of experiment: Fermentation of glucose solution with model inhibitors (cinnamaldehyde, vanillin), with or without cysteine or glycine detoxification. Conditions: for detoxification of cinnamaldehyde in glucose solution (fermentation): 2.5 mM cinnamaldehyde. Type of assay: cell-based, Saccharomyces cerevisiae. The procedure: (§1) Batch fermentation was carried out in 125 mL serum bottles containing 50 mL broths (untreated or detoxified hydrolysates, untreated or detoxified cinnamaldehyde sugar solution) without any additional nutrient supplement. All the fermentation broths were adjusted to pH 6 with NaOH or H2SO4 and sterilized by passing 0.2 μm sterile filters. After inoculation, the serum bottle was sealed with rubber stopper and aluminum seal, and equipped with cannulas for CO2 release. All fermentation experiments were incubated at 30° C., spun at 150 rpm in a shaker (E24, New Brunswick Scientific). Aliquots of samples were withdrawn at 0, 1, 3, 6, 9, 12, 24, 36 and 48 hours for the time course analysis of both starting material and products. Fermentation was carried out in duplicate. The volumetric ethanol productivity and initial consumption rate of glucose (RG) and mannose (RM) was calculated based on the sugar consumed in the first 6 h of fermentation as described previously (Cao, D. X., Tu, M. B., Xie, R., Li, J., Wu, Y. N., Adhikari, S. 2014. Inhibitory Activity of Carbonyl Compounds on Alcoholic Fermentation by Saccharomyces cerevisiae. Journal of Agricultural and Food Chemistry, 62(4), 918-926).
Preparation of the lignocellulosic biomass and the treatment thereof was performed as described in Example 1. After detoxification, the detoxified hydrolysates were cooled to room temperature and then readjusted to pH 6.0 if needed. Similarly, for the model compound (cinnamaldehyde) detoxification, glucose (˜20 g/L) was mixed with 2.5 mM cinnamaldehyde, and then treated with 5 mM cysteine or glycine at 60° C. for 2 hours prior to fermentation.
To ascertain the potential reaction mechanism in amino acids detoxification of biomass hydrolysates, cinnamaldehyde was detoxified in glucose solution with cysteine and glycine.

Assay [2] has as its system S. cerevisiae. Nature of the assay: Batch fermentation of amino acid detoxified loblolly pine hydrolysates by Baker yeast. Type of assay: cell-based, Saccharomyces cerevisiae. The conditions noted are these: for CEtOH, ethanol final concentration at 48 h / QEtOH, volumetric ethanol productivity in the first 6 h / RG, glucose consumption rate in the first 6 h / RM, mannose consumption rate in the first 6 h / YEtOH, ethanol yield from total glucose and mannose at 48 h / CHMF, percentage of HMF consumed at 48 h: hydrolysates detoxified with amino acid 0.2% w/v.
From the text: Loblolly pine (Pinus taeda) wood chips (1.0×1.0 cm, L×W) were collected by Forest Products Laboratory at Auburn University, located in Auburn, Ala. Dilute acid pretreatment was used to produce biomass hydrolysates in a 4.0 L Parr batch reactor (Parr Instrument Co., Moline, Ill.) as previously described (Lai, C. H., Tu, M. B., Li, M., Yu, S. Y. 2014. Remarkable solvent and extractable lignin effects on enzymatic digestibility of organosolv pretreated hardwood. Bioresource Technology, 156, 92-98). Briefly, wood chips (400 grams, dry weight) were soaked in 1% (w/w) sulfuric acid overnight (7:1 liquor/solid ratio) prior to the pretreatment, and then loaded into a reactor and treated at 170° C. for 60 minutes.
To achieve higher ethanol titer in fermentation, loblolly pine hydrolysates were concentrated to approximately one-third of its original volume using a rotary evaporator (IKA RV10 basic) at 40° C. and 60 rotations per minute (rpm). The hydrolysates were first adjusted to pH 4.0 before evaporation. After the concentration, the sugar contents of the hydrolysates were analyzed by HPLC.
[…] The detoxification experiments were performed in a 250 mL flask and placed in a temperature-controlled water batch.
Baker yeast (Fleischmann's), S. cerevisiae, was used for all the fermentation experiments in this study. The yeast was maintained on YDP medium containing (g/L): 20 glucose, 20 peptone, 10 yeast extract and 20 agar. Isolated colony was grown in YDP liquid medium overnight and harvested as fermentation inoculum. The yeast concentration was measured using an UV-vis spectrophotometer. Inoculum of 2.0 g/L was used for all fermentation experiments.
as §1
Ethanol, acetic acid, levulinic acid, formic acid, furfural and HMF were analyzed using an Aminex HPX-87H column (300×7.8 mm) with a refractive index detector. The elution conditions were column temperature of 45° C. and flow rate of 0.6 ml/min with 5.0 mM H2SO4 as the mobile phase in a 60 min isocratic run.

The test system of assay [3] is S. cerevisiae. The conditions noted are these: cited from earlier work.
[4] abbreviates: glucose ~20 g/L, 5 mM amino acid, 60° C., 2 hours.
[5] abbreviates: detoxification at 80° C., pH 6.0, 2 hours.
Setting [6] is: pH 6.0, 60° C., 2 hours, listed as cysteine.
The mark [7] stands for this setting: pH 6.0, 60° C., 2 hours detoxification.
[8] abbreviates: detoxification at 50° C., pH 6.0, 2 hours.
The mark [9] stands for this setting: detoxification at pH 8.0, 60° C., 2 hours.
Setting [10] is: pH 6.0, 60° C., 2 hours, listed as glycine.

“And” between values parts separate entries of the source, which are not always exact repeats. Equal values may be shown once.

In the case of `N[C@@H](CS)C(=O)O` [Cysteine, cysteine], the “detoxification of cinnamaldehyde in glucose solution (fermentation)” value (“detoxification of cinnamaldehyde” below) in assay [1] (setting [4]) is listed as “detoxified cinnamaldehyde very effectively”. Further, in assay [2] (60° C., 2 hours), the “increase of volumetric ethanol productivity when pH was increased from 2 and 4 to 6” value is 92%. The same compound gave a final ethanol yield in assay [2] (detoxification at 20, 40, 60 and 80° C. (approximately the same), pH 6.0) of around 0.42 g/g. The final ethanol concentration result in assay [2] (detoxification at 20, 40, 60 and 80° C. (the same), pH 6.0) was “about 23.34 g/L”; in assay [2] (detoxification at pH 2.0, 4.0 and 6.0 (the same), 60° C.) it was 23.56 g/L. The volumetric ethanol productivity in assay [2] (detoxification at 20° C., pH 6.0, 2 hours) stood at 0.83 g/L/h; in assay [2] (detoxification at 40° C., pH 6.0, 2 hours) it was 1.19 g/L/h; in assay [2] (setting [5]), 1.90 g/L/h; in assay [2] (detoxification at pH 2 and 4, 60° C., 2 hours) it was 0.92 g/L/h. For the same compound, the “CEtOH, ethanol final concentration at 48 h” value (from here on “CEtOH … at 48 h”) in assay [2] (pH 6.0, 60° C., 2 hours) is reported as 23.14 ± 0.10 g/L; in assay [2] (setting [6]) it was 23.14 g/L. Moreover, the “QEtOH, volumetric ethanol productivity in the first 6 h” value (from here on “QEtOH, volumetric ethanol productivity”) in assay [2] (pH 6.0, 60° C., 2 hours) was found to be 1.77 ± 0.03 g/L/h; in assay [2] (setting [6]), 1.77 g/L/h. Besides, the “RG, glucose consumption rate in the first 6 h” value (shortened to “RG, glucose consumption rate”) in assay [2] (pH 6.0, 60° C., 2 hours) is reported as 2.10 ± 0.04 g/L/h; in assay [2] (setting [6]) it was 2.10 g/L/h. Besides, the “RM, mannose consumption rate in the first 6 h” value (“RM, mannose consumption rate” below) in assay [2] (pH 6.0, 60° C., 2 hours) was found to be 2.16 ± 0.12 g/L/h; in assay [2] (setting [6]) it was 2.16 g/L/h. In addition, the “YEtOH, ethanol yield from total glucose and mannose at 48 h” value (from here on “YEtOH, ethanol yield”) in assay [2] (pH 6.0, 60° C., 2 hours) amounted to 0.42 ± 0.00 g/g; in assay [2] (setting [6]), 0.42 g/g. For the same compound, the “ethanol productivity higher than positive sugar control (1.39 g/L/h)” value in assay [2] (setting [7]) was found to be 27%. Further, in assay [2] (setting [7]), the “improvement of mannose consumption rate compared to the positive sugar control” value is listed as 43%. Further, the “increase of volumetric ethanol productivity when temperature was changed from 20 to 40, 60, and 80° C.” value in assay [2] (pH 6.0, 2 hours) is 43-130%.

Consider `NCC(=O)O` [Glycine, glycine], for which the “detoxification of cinnamaldehyde” value in assay [1] (glucose solution, detoxified at 80° C.) was “became fermentable”. Also, the “detoxification of cinnamaldehyde” value in assay [1] (setting [4]) is “did not detoxify the cinnamaldehyde”. In assay [2] (setting [8]), this compound showed an ethanol productivity of 0.24 g/L/h and a final ethanol concentration of 1.87 g/L. The compound further gave a final ethanol concentration in assay [2] (detoxification at 70 and 80° C., pH 6.0, 2 hours) of 23.00 g/L. Also, the ethanol productivity in assay [2] (detoxification at 70° C., pH 6.0, 2 hours) is listed as 1.08 g/L/h. This compound returned a volumetric ethanol productivity in assay [2] (setting [5]) of 1.33 g/L/h. Further, in assay [2] (detoxification at pH 2.0 and 4.0, 60° C., 2 hours), the “fermentability of detoxified biomass hydrolysates” value is on record as “not fermentable”. Further, the “fermentability of detoxified hydrolysates” value in assay [2] (detoxification at pH 2.0 and 4.0, 80° C.) is recorded as “still not fermentable”. In assay [2] (setting [9]), this compound came in with an ethanol productivity of 0.87 g/L/h and a final ethanol concentration of 23.77 g/L. In addition, in assay [2] (pH 6.0, 60° C., 2 hours), the “CEtOH … at 48 h” value was determined as 8.58 ± 0.27 g/L; the “QEtOH, volumetric ethanol productivity” value is 0.42 ± 0.01 g/L/h; the “RG, glucose consumption rate” value came to 0.39 ± 0.01 g/L/h; the “RM, mannose consumption rate” value was found to be 0.50 ± 0.05 g/L/h. The “YEtOH, ethanol yield” value in assay [2] (pH 6.0, 60° C., 2 hours) is 0.16 ± 0.01 g/g. In assay [2] (setting [10]), the “CEtOH … at 48 h” value worked out at 8.58 g/L; the “QEtOH, volumetric ethanol productivity” value is listed as 0.42 g/L/h; the “YEtOH, ethanol yield” value worked out at 0.16 g/g.

Take `O=Cc1ccc(CO)o1` [HMF, hydroxymethylfurfural]: the “effect on ethanol production by S. cerevisiae” value in assay [3] (addition of 25 mM (3.16 g/L)) is listed as “did not affect the ethanol production”.

For `N[C@@H](Cc1c[nH]c2ccccc12)C(=O)O` [Tryptophan, tryptophan], in assay [2] (pH 6.0, 60° C., 2 hours), the “CEtOH … at 48 h” value is given as 11.59 ± 0.25 g/L; the “QEtOH, volumetric ethanol productivity” value was found to be 0.63 ± 0.01 g/L/h; the “RG, glucose consumption rate” value is 0.69 g/L/h and 0.69 ± 0.00 g/L/h; the “RM, mannose consumption rate” value was 0.89 g/L/h and 0.89 ± 0.04 g/L/h. The “CEtOH … at 48 h” value in assay [2] (pH 6.0, 60° C., 2 hours, listed as tryptophan) is on record as 11.59 g/L.

Consider `N[C@@H](Cc1ccc(O)cc1)C(=O)O` [Tyrosine, tyrosine], for which, in assay [2] (pH 6.0, 60° C., 2 hours), the “CEtOH … at 48 h” value is given as 2.16 ± 0.25 g/L; the “CHMF, percentage of HMF consumed at 48 h” value stood at 12.17 ± 0.92%; the “QEtOH, volumetric ethanol productivity” value is 0.30 ± 0.02 g/L/h; the “RG, glucose consumption rate” value worked out at 0.25 ± 0.02 g/L/h. Moreover, in assay [2] (pH 6.0, 60° C., 2 hours), the “RM, mannose consumption rate” value is 0.59 ± 0.05 g/L/h; the “YEtOH, ethanol yield” value was found to be 0.04 ± 0.00 g/g.

Turning to `CC(C)[C@H](N)C(=O)O` [Valine, valine], in assay [2] (pH 6.0, 60° C., 2 hours), the “CEtOH … at 48 h” value came out at 2.69 ± 0.18 g/L; the “CHMF, percentage of HMF consumed at 48 h” value came to 12.66 ± 1.50%; the “QEtOH, volumetric ethanol productivity” value came to 0.32 ± 0.00 g/L/h; the “RG, glucose consumption rate” value amounted to 0.25 ± 0.00 g/L/h. Further, in assay [2] (pH 6.0, 60° C., 2 hours), the “RM, mannose consumption rate” value is listed as 0.49 ± 0.03 g/L/h; the “YEtOH, ethanol yield” value is given as 0.05 ± 0.00 g/g.

On to `CC(=O)O` [acetic acid], for which the “increase of final ethanol yield in S. cerevisiae fermentation” value in assay [3] (9 g/L at pH 5) was 16%.

As for `O=CC=Cc1ccccc1` [cinnamaldehyde, reference compound], the “inhibition of glucose fermentation” value in assay [1] (2.5 mM inhibitor in glucose solution, preliminary results) is listed as “inhibited glucose fermentation significantly”.

On to `COc1cc(C=O)ccc1O` [vanillin, reference compound], for which the “inhibition of glucose fermentation (final ethanol concentration and yield)” value in assay [1] (10 mM inhibitor in glucose solution, preliminary results) was “did not inhibit the final ethanol concentration and yield”.
